{
  "source": "patent US20210380595A1",
  "about": "(ARAXES PHARMA LLC, priority 2018, published 2021)",
  "data": [
    {"target": "T1, KRAS G12C 1-169, his-tagged protein, GDP-loaded (Homo sapiens, UniProt P01116, G12C)", "T1 construct": "KRAS G12C 1-169, his-tagged protein, GDP-loaded", "assay": "Biochemical assay: covalent modification of KRAS G12C measured by mass spectrometry (RapidFire/TOF or Q-Exactive)", "format": "binding", "conditions": "tested at 32 μM", "method": "(§1) Test compounds were prepared as 10 mM stock solutions in DMSO (Fisher cat. #BP-231-100). KRAS G12C 1-169, his-tagged protein, GDP-loaded is diluted to 2 μM or 0.5 μM in buffer (20 mM Hepes, 150 mM NaCl, 1 mM MgCl2). Compounds were tested for activity as follows:\n(§2) Compounds were diluted to 50× final test concentration in DMSO in 96-well storage plates. Compound stock solutions were vortexed before use and observed cwerefully for any sign of precipitation. Dilutions were as follow: • For 32 μM final compound concentration, compounds were diluted to 1600 μM (3 μL 10 mM compound stock +15.75 μL DMSO and mixed well by pipetting. • For 8 μM final compound concentration, compounds were diluted to 400 μM (2 μL 10 mM compound stock +48 μL DMSO) and mixed well by pipetting. 49 μL of the stock protein solution was added to each well of a 96-well PCR plate (Fisher cat#1423027). 1 μl of the diluted 50× compounds were added to appropriate wells in the PCR plate using 12-channel pipettor. Reactions were mixed carefully and thoroughly by pipetting up/down with a 200 μL multi-channel pipettor. The plate was sealed well with aluminum plate seal, and protein and compound were allowed to react for a desired amount of time. 5 μL of 2% formic acid (Fisher cat#A117) in de-ionized H2O was then added to each well followed by mixing with a pipette to quench the reaction. The plate was then resealed with aluminum seal and stored frozen on dry ice until analyzed as described below.\n(§3) The above described assays were analyzed by mass spectrometry according to one of the following two procedures:\n(§4) The MS instrument was set to positive polarity, 2 GHz resolution, and low mass (1700) mode and allowed to equilibrate for 30 minutes. The instrument was then calibrated, switched to acquisition mode and the appropriate method loaded.\n(§5) After another 30 minute equilibration time, a blank batch (i.e., buffer) was run to ensure equipment is operating properly. The samples were thawed at 37° C. for 10 minutes, briefly centrifuged, and transfered to the bench top. Wells A1 and H12 were spiked with 1 μL 500 μM internal standard peptide, and the plates centrifuged at 2000×g for 5 minutes. The method was then run and masses of each individual well recorded.\n(§6) The masses (for which integration data is desired) for each well were pasted into the platemap and exported from the analysis. Masses for the internal standards were exported as well. The data at 50 ppm was extracted for the +19 charge state, and identity of well A1 was assigned using the internal standard spike and integrated. Peak data was exported as a TOF list and the above steps were repeated individually, for the +20, +21, +22, +23, +24, and +25 charge states.\n(§7) The masses and peak intensities of KRAS G12C protein species were measured using a Dionex RSLCnano system (Thermo Scientific) connected to a Q Exactive Plus mass spectrometer (Thermo Scientific).\n(§8) 20 μL of sample was loaded onto a Aeris™ 3.6 μm WIDEPORE C4 200 Å, LC Column 50×2.1 mm column maintained at 40° C. at a flow rate of 600 μL/min with 80% Solvent A (0.1% formic acid in H2O) and 20% Solvent B (0.1% formic acid in acetonitrile). The liquid chromatography conditions were 20% solvent B for 1 minute, 20% to 60% solvent B for 1.5 minutes, 60% to 90% solvent for 0.5 minute, 90% solvent B for 0.2 minute, 90% to 20% solvent B for 0.2 minute, and then equilibrated for 1.6 minute before the following sample injection. The flow rate was maintained at 600 μL/min throughout the sample analysis.\n(§9) The mass spectrometer was operated in profile mode at a resolution of 17500, 5 microscans, using 50 msec max injection time and an AGC target of 1×10^6, and a full mass range from 800-1850 m/z was recorded. The intact protein mode was applied for optimal ion transfer and maximum sensitivity. The ionization method was electrospray ionization, which used a spray voltage of 4 kV, sheath gas flow set to 50 AU, auxiliary gas flow set to 10 AU and sweep gas flow set to 1 AU. […]", "values": [
      {"molecule": "CC#CC(=O)N1CC2(CCN(c3cccc(-c4c(O)cccc4F)c3C#N)C2)C1", "note": "[Compound I-18, 3-(2-(but-2-ynoyl)-2,6-diazaspiro[3.4]octan-6-yl)-2′-fluoro-6′-hydroxy-[1,1′-biphenyl]-2-carbonitrile]", "Bind %": "+ (+ indicates binding activity greater than 0% and up to 50%)"},
      {"molecule": "C=CC(=O)N1CC2(CCN(c3cccc(-c4c(C)ccc5[nH]nc(N)c45)c3C#N)C2)C1", "note": "[Compound I-19, 2-(2-acryloyl-2,6-diazaspiro[3.4]octan-6-yl)-6-(3-amino-5-methyl-1H-indazol-4-yl)benzonitrile]", "Bind %": "+++ (+++ indicates binding activity greater than 75%)"},
      {"molecule": "C=CC(=O)N1CC2(CCN(c3cc(OCc4ccccn4)cc(-c4c(C)ccc5[nH]ncc45)c3C#N)C2)C1", "note": "[Compound I-20, 2-(2-acryloyl-2,6-diazaspiro[3.4]octan-6-yl)-6-(5-methyl-1H-indazol-4-yl)-4-(pyridin-2-ylmethoxy) benzonitrile]", "Bind %": "+++ (+++ indicates binding activity greater than 75%)"},
      {"molecule": "C=CC(=O)N1CC2(CCN(c3cc(OC[C@@H]4CCCN4C)cc(-c4c(C)ccc5[nH]ncc45)c3C#N)C2)C1", "note": "[Compound I-21, 2-(2-acryloyl-2,6-diazaspiro[3.4]octan-6-yl)-6-(5-methyl-1H-indazol-4-yl)-4-(((S)-1-methylpyrrolidin-2-yl)methoxy) benzonitrile]", "Bind %": "+++ (+++ indicates binding activity greater than 75%)"},
      {"molecule": "C=CC(=O)N1CCC2(CCN(c3cccc(-c4c(C)ccc5[nH]ncc45)c3C#N)C2)C1", "note": "(centres unmarked) [Compound I-22, 2-(7-acryloyl-2,7-diazaspiro[4.4]nonan-2-yl)-6-(5-methyl-1H-indazol-4-yl)benzonitrile]", "Bind %": "+ (+ indicates binding activity greater than 0% and up to 50%)"},
      {"molecule": "CC#CC(=O)N1CC2(CCN(c3cccc(-c4c(C)ccc5[nH]nc(N)c45)c3C#N)C2)C1", "note": "[Compound I-23, 2-(3-amino-5-methyl-1H-indazol-4-yl)-6-(2-(but-2-ynoyl)-2,6-diazaspiro[3.4]octan-6-yl)benzonitrile]", "Bind %": "+ (+ indicates binding activity greater than 0% and up to 50%)"},
      {"molecule": "C=CC(=O)N1CC2(CCN(c3cc(N4CCC(N(C)C)CC4)cc(-c4c(C)ccc5[nH]ncc45)c3C#N)C2)C1", "note": "[Compound I-24, 2-(2-acryloyl-2,6-diazaspiro[3.4]octan-6-yl)-4-(4-(dimethylamino)piperidin-1-yl)-6-(5-methyl-1H-indazol-4-yl)benzonitrile]", "Bind %": "+++ (+++ indicates binding activity greater than 75%)"},
      {"molecule": "C=CC(=O)N1CC2(CCN(c3ccc(C)c(-c4c(C)ccc5[nH]ncc45)c3C#N)C2)C1", "note": "[Compound I-25, 6-(2-acryloyl-2,6-diazaspiro[3.4]octan-6-yl)-3-methyl-2-(5-methyl-1H-indazol-4-yl)benzonitrile]", "Bind %": "++ (++ indicates binding activity from 50 to 75%)"},
      {"molecule": "Cc1ccc2[nH]ncc2c1-c1cccc(N2CCC3(CN(C(=O)/C=C/CN(C)C)C3)C2)c1C#N", "note": "[Compound I-36, (E)-2-(2-(4-(dimethylamino)but-2-enoyl)-2,6-diazaspiro[3.4]octan-6-yl)-6-(5-methyl-1H-indazol-4-yl)benzonitrile]", "Bind %": "+ (+ indicates binding activity greater than 0% and up to 50%)"}
    ]},
    {"target": "T1, KRAS G12C 1-169, his-tagged protein, GDP-loaded", "assay": "Biochemical assay: covalent modification of KRAS G12C measured by mass spectrometry (RapidFire/TOF or Q-Exactive)", "format": "binding", "conditions": "tested at a concentration of 8 μM", "method": "as §1, §2, §3, §4, §5, §6, §7, §8, §9", "values": [
      {"molecule": "C=CC(=O)N1CC2(CCN(c3cc(N4CC(N(C)C)C4)cc(-c4c(C)ccc5[nH]ncc45)c3C#N)C2)C1", "note": "[Compound I-26, 2-(2-acryloyl-2,6-diazaspiro[3.4]octan-6-yl)-4-(3-(dimethylamino)azetidin-1-yl)-6-(5-methyl-1H-indazol-4-yl)benzonitrile]", "Bind %": "+++ (+++ indicates binding activity greater than 75%)"},
      {"molecule": "C=CC(=O)N1CC2(CCN(c3cc(OCCCN(C)C)cc(-c4c(C)ccc5[nH]ncc45)c3C#N)C2)C1", "note": "[Compound I-27, 2-(2-acryloyl-2,6-diazaspiro[3.4]octan-6-yl)-4-(3-(dimethylamino)propoxy)-6-(5-methyl-1H-indazol-4-yl)benzonitrile]", "Bind %": "++ (++ indicates binding activity from 50 to 75%)"},
      {"molecule": "C=CC(=O)N1CC2(CCN(c3cc(OCc4ccccn4)cc(-c4c(C)ccc5cnn(C)c45)c3C#N)C2)C1", "note": "[Compound I-28, 2-(2-acryloyl-2,6-diazaspiro[3.4]octan-6-yl)-6-(1,6-dimethyl-1H-indazol-7-yl)-4-(pyridin-2-ylmethoxy) benzonitrile]", "Bind %": "+++ (+++ indicates binding activity greater than 75%)"},
      {"molecule": "C=CC(=O)N1CC2(CCN(c3ccc(F)c(-c4c(C)ccc5[nH]ncc45)c3C#N)C2)C1", "note": "[Compound I-29, 6-(2-acryloyl-2,6-diazaspiro[3.4]octan-6-yl)-3-fluoro-2-(5-methyl-1H-indazol-4-yl)benzonitrile]", "Bind %": "+++ (+++ indicates binding activity greater than 75%)"},
      {"molecule": "C=CC(=O)N1CC2(CCN(c3cc(N4CCN(C)C(=O)C4)cc(-c4c(C)ccc5[nH]ncc45)c3C#N)C2)C1", "note": "[Compound I-30, 2-(2-acryloyl-2,6-diazaspiro[3.4]octan-6-yl)-6-(5-methyl-1H-indazol-4-yl)-4-(4-methyl-3-oxopiperazin-1-yl)benzonitrile]", "Bind %": "++ (++ indicates binding activity from 50 to 75%)"},
      {"molecule": "C=CC(=O)N1CC2(CCN(c3cc(N4CCCC(O)C4)cc(-c4c(C)ccc5[nH]ncc45)c3C#N)C2)C1", "note": "(centres unmarked) [Compound I-31, 2-(2-acryloyl-2,6-diazaspiro[3.4]octan-6-yl)-4-(3-hydroxypiperidin-1-yl)-6-(5-methyl-1H-indazol-4-yl)benzonitrile]", "Bind %": "+++ (+++ indicates binding activity greater than 75%)"},
      {"molecule": "C=CC(=O)N1CC2(CCN(c3cc(N4CCC(CN(C)C)CC4)cc(-c4c(C)ccc5[nH]ncc45)c3C#N)C2)C1", "note": "[Compound I-32, 2-(2-acryloyl-2,6-diazaspiro[3.4]octan-6-yl)-4-(4-((dimethylamino)methyl)piperidin-1-yl)-6-(5-methyl-1H-indazol-4-yl)benzonitrile]", "Bind %": "+++ (+++ indicates binding activity greater than 75%)"},
      {"molecule": "C=CC(=O)N1CC2(CCN(c3cc(N4CCCC(N(C)C)C4)cc(-c4c(C)ccc5[nH]ncc45)c3C#N)C2)C1", "note": "(centres unmarked) [Compound I-33, 2-(2-acryloyl-2,6-diazaspiro[3.4]octan-6-yl)-4-(3-(dimethylamino)piperidin-1-yl)-6-(5-methyl-1H-indazol-4-yl)benzonitrile]", "Bind %": "+++ (+++ indicates binding activity greater than 75%)"},
      {"molecule": "Cc1ccc2[nH]ncc2c1-c1cc(N2CCOCC2)cc(N2CCC3(CN(C(=O)/C=C/CN(C)C)C3)C2)c1C#N", "note": "[Compound I-34, (E)-2-(2-(4-(dimethylamino)but-2-enoyl)-2,6-diazaspiro[3.4]octan-6-yl)-6-(5-methyl-1H-indazol-4-yl)-4-morpholino-benzonitrile]", "Bind %": "+ (+ indicates binding activity greater than 0% and up to 50%)"},
      {"molecule": "C=CC(=O)N1CC2(CCN(c3cc(OCCCN(C)C)cc(-c4c(C)ccc5cnn(C)c45)c3C#N)C2)C1", "note": "[Compound I-35, 2-(2-acryloyl-2,6-diazaspiro[3.4]octan-6-yl)-6-(1,6-dimethyl-1H-indazol-7-yl)-4-(3-(dimethylamino)propoxy) benzonitrile]", "Bind %": "++ (++ indicates binding activity from 50 to 75%)"},
      {"molecule": "C=CC(=O)N1CC2(CCN(c3ccc(OC)c(-c4c(C)ccc5[nH]ncc45)c3C#N)C2)C1", "note": "[Compound I-37, 6-(2-acryloyl-2,6-diazaspiro[3.4]octan-6-yl)-3-methoxy-2-(5-methyl-1H-indazol-4-yl)benzonitrile]", "Bind %": "+ (+ indicates binding activity greater than 0% and up to 50%)"}
    ]}
  ]
}
